From patent EP4755878A1, “PHOTOCHROMIC COMPOUND, PHENOL DERIVATIVE, CURABLE COMPOSITION, OPTICAL ARTICLE, LENS, AND EYEGLASS” (TOKUYAMA CORPORATION, priority 2023, dated 2025)

Assays:
[1] = Photochromic properties of photochromic laminate (plastic lens) made by coating method; type: physicochemical; conditions: for Color developing density at 23°C: absorbance difference after 240 seconds irradiation at 23°C; for Color developing density at 35°C: absorbance difference after 240 seconds irradiation at 35°C; for Maximum absorption wavelength: after color development, second absorption wavelength (lower line of pair)
Excerpt: First, the photochromic compound obtained in Example 1 above, a photoinitiator, and polymerizable compounds were mixed to obtain a curable composition.
As the polymerizable compounds, a blend of the following radically-polymerizable monomers in combination was used.
• Polyethylene glycol dimethacrylate (average molecular weight: 736): 42 parts by mass • Polyethylene glycol dimethacrylate (average molecular weight: 536): 12 parts by mass • Trimethylolpropane trimethacrylate: 38 parts by mass • γ-Methacryloyloxypropyltrimethoxysilane: 2 parts by mass • Glycidyl methacrylate: 1 part by mass.
Note that in the curable composition, the photochromic compound obtained in Example 1 above was added to be 0.25 mmol taking the total amount of the radically-polymerizable monomers as 100 g. The following were used as additives.
(stabilizer, Irganox 245): 1 part by mass Bis(1,2,2,6,6-pentamethyl-4-piperidyl) sebacate: 3 parts by mass Leveling agent from DuPont Toray Specialty Materials K.K. (L7001): 0.1 parts by mass.
Note that the above-mentioned additives are described with blending ratios taking a total of the radically-polymerizable monomers as 100 parts by mass.
Using this curable composition, a photochromic laminate was obtained by a lamination process described below with the polymerization described below being carried out.
First, a thiourethane plastic lens with a center thickness of 2 mm and a refractive index of 1.60 was prepared as an optical substrate. Note that the thiourethane plastic lens had been alkaline-etched beforehand in a 10% aqueous sodium hydroxide solution at 50°C for 5 minutes, and then thoroughly washed with distilled water.
A spin coater (1H-DX2, manufactured by MIKASA CO., LTD) was used to coat a surface of the above-mentioned plastic lens with a moisture-curable primer (product name: TR-SC-P, manufactured by Tokuyama Corporation) at a rotation speed of 70 rpm for 15 seconds, followed by at 1000 rpm for 10 seconds. Then, about 2 g of the photochromic curable composition obtained as above was spin-coated at a rotation speed of 60 rpm for 40 seconds, followed by at 600 rpm for 10 to 20 seconds so as to achieve a photochromic coating layer with a film thickness of 40 µm.
The lens having the surface coated with the photochromic curable composition (photochromic coating layer) was irradiated with light for 90 seconds in a nitrogen gas atmosphere using a metal halide lamp with an output of 200 mW/cm^2 to cure the coating film. The coating was then further heated at 110°C for 1 hour to produce a photochromic laminate with a photochromic layer.
Photochromic laminates were produced using the photochromic compounds obtained in Examples 2 to 19 in the same manner as in Example 20.
Photochromic laminates were obtained in the same manner as in Example 20 using photochromic compounds represented by the following formulas (A) to (F). [drawing 143] [drawing 144] [drawing 145] [drawing 146] [drawing 147] [drawing 148] [drawing 149] [drawing 150]
The resulting photochromic laminates were evaluated by the methods described below.
Table 3 summarizes the results of Examples 20, 32, and 34, and Comparative Examples 1 to 6, and Table 4 summarizes the results of Examples 21 to 31, 33, and 35 to 38. The relationship between the fading half-life at 23°C and the color development ratio at the higher temperature of the photochromic laminates according to Examples and Comparative Examples are shown in a graph in FIG. 1.
Photochromic laminates were formed using the photochromic compound obtained in Examples 61 to 71 in the same manner as in Example 20.

[2] = Photochromic properties of photochromic cured product made by kneading method; type: physicochemical; conditions: for Maximum absorption wavelength: 1 mm, after color development, second absorption wavelength (lower line of pair); for Color developing density at 23°C: absorbance difference after 240 seconds irradiation at 23°C; for Color developing density at 35°C: absorbance difference after 240 seconds irradiation at 35°C
Excerpt: First, the photochromic compound obtained in Example 1, additives, and polymerizable compounds were mixed to obtain a curable composition. As the polymerizable compounds, a blend of the following polymerizable monomers in combination was used. • 1,3-Bis(isocyanatomethyl)cyclohexane: 36.7 parts by mass Pentaerythritol tetrakis(3-mercaptopropionate): 39.4 parts by mass • Polyoxyethylene polyoxypropylene lauryl ether (WONDERSURF 140 from Aoki Oil Industrial Co., Ltd.): 17.4 parts by mass 1-Decanethiol: 2.8 parts by mass • RX-1 prepared according to the method described in Patent Document 12: 3.8 parts by mass Note that in the curable composition, the photochromic compound was added to be 0.106 mmol taking the total amount of the polymerizable monomers as 100 g.
The following additives were used. Dimethyltin dichloride: 0.05 parts by mass • Irganox 245 from BASF Japan Ltd.: 0.1 parts by mass • 2-Ethylhexyl 4-methoxycinnamate: 0.6 parts by mass
The prepared curable composition was sufficiently degassed, and then injected into a glass mold provided with a gap of 1 mm, and the curable composition was polymerized via casting polymerization. […] After the polymerization, the cured product was removed from the glass mold, to obtain photochromic cured product having a thickness of 1 mm. The resulting photochromic cured product was evaluated in the same manner as in Example 23.
(Examples 51 to 60, and Comparative Examples 11 to 14) Photochromic cured products were formed using the photochromic compound shown in Table 6 in the same manner as in Example 50.

[3] = Photochromic properties of photochromic layer (binder sheet) made by binder method; conditions: for Color developing density at 23°C: absorbance difference after 240 seconds irradiation at 23°C; for Color developing density at 35°C: absorbance difference after 240 seconds irradiation at 35°C; for Maximum absorption wavelength: after color development, second absorption wavelength (lower line of pair)
Method: This is the maximum absorption wavelength after color development determined by a spectrophotometer manufactured by Otsuka Electronics Co., Ltd. (instantaneous multichannel photo detector MCPD3000) and was used as an index of a color tone upon color development.
This is a difference between an absorbance {ε(240)} after irradiation with light at the above-mentioned maximum absorption wavelength at 23°C for 240 seconds and an absorbance ε(0) when not irradiated with light, and was used as an index of a color developing density. The higher this value is, the better photochromic property is.
This is a difference between an absorbance {ε(240)} after irradiation with light at first and second absorption wavelengths at 35°C for 240 seconds and an absorbance ε(0) when not irradiated with light, and was used as an index of a color developing density. The higher this value is, the better photochromic property is.
Color developing density at 35°C (A35) /color developing density at 23°C (A23) × 100(%). The higher this value is, the smaller the difference in color developing density between the higher temperature and the lower temperature is, and the smaller the temperature dependence is.
This is the period of time required for the absorbance at a maximum absorption wavelength of a sample to decrease to 1/2 of {ε(240)-ε(0)}, when light irradiation is stopped after the sample had been irradiated with light at 23°C for 240 seconds, and was used as an index of a color fading rate. The shorter this period of time is, the higher the color fading rate is.
A binder sheet was made according to the following method. […] As the first and second optical sheets, polycarbonate sheets with a thickness of 400 µm were used.
Note that the photochromic compound was added to be 0.25 mmol relative to 100 parts by mass of the terminally non-reactive urethaneurea resin.

Color developing density at 23°C ([1]; first absorption wavelength)	Color developing density at 23°C ([1]; second absorption wavelength)	Color developing density at 35°C ([1]; first absorption wavelength)	Color developing density at 35°C ([1]; second absorption wavelength)	Maximum absorption wavelength [1] [nm]	Maximum absorption wavelength [2] [nm]	Color developing density at 23°C ([2]; first absorption wavelength)	Color developing density at 23°C ([2]; second absorption wavelength)	Color developing density at 35°C ([2]; first absorption wavelength)	Color developing density at 35°C ([2]; second absorption wavelength)	Color developing density at 23°C ([3]; first absorption wavelength)	Color developing density at 23°C ([3]; second absorption wavelength)	Color developing density at 35°C ([3]; first absorption wavelength)	Color developing density at 35°C ([3]; second absorption wavelength)	Maximum absorption wavelength [3] [nm]	SMILES
1.30 -	0.71 -	0.90 -	0.49 -	622	625	1.35 -	0.72 -	0.95 -	0.50 -	1.33 -	0.72 -	0.89 -	0.49 -	622	CCCOc1ccc(C2(c3ccc(OC)cc3)C=Cc3c4c(c5cc6c(cc5c3O2)OC(C)(C)S6)-c2ccc(N3CCCc5ccccc53)cc2C4(CCCOC)CCCOC)cc1 (stereo not drawn) [Formula (7-4)]
1.01 -	0.90 -	0.74 -	0.66 -	609	614	1.05 -	0.92 -	0.78 -	0.69 -	1.04 -	0.91 -	0.73 -	0.64 -	607	CCCOc1ccc(C2(c3ccc(OC)cc3)C=Cc3c4c(c5cc(C)c(OC)cc5c3O2)-c2ccc(N3CCSc5ccccc53)cc2C4(CCC)CCC)cc1 (stereo not drawn) [Formula (9-2)]
0.91 -	1.33 -	0.69 -	1.02 -	581	588	0.94 -	1.36 -	0.73 -	1.06 -	0.94 -	1.34 -	0.68 -	1.00 -	580	CCCCOc1ccc(C2(c3ccc(OC)cc3)C=Cc3c4c(c5ccc(C)cc5c3O2)-c2ccc(N3CCOc5ccccc53)cc2C4(CCCC(F)(F)F)CCCC(F)(F)F)cc1 (stereo not drawn) [Formula (3-3)]

More lines, now with the values behind:

SMILES	Color developing density at 23°C ([1]; first absorption wavelength)	Color developing density at 23°C ([1]; second absorption wavelength)	Color developing density at 35°C ([1]; first absorption wavelength)	Color developing density at 35°C ([1]; second absorption wavelength)	Maximum absorption wavelength [1] [nm]	Maximum absorption wavelength [2] [nm]	Color developing density at 23°C ([2]; first absorption wavelength)	Color developing density at 23°C ([2]; second absorption wavelength)	Color developing density at 35°C ([2]; first absorption wavelength)	Color developing density at 35°C ([2]; second absorption wavelength)	Color developing density at 23°C ([3]; first absorption wavelength)	Color developing density at 23°C ([3]; second absorption wavelength)	Color developing density at 35°C ([3]; first absorption wavelength)	Color developing density at 35°C ([3]; second absorption wavelength)	Maximum absorption wavelength [3] [nm]
CCCCC1(CCCC)c2cc(N(CC)c3ccccc3)ccc2-c2c1c1c(c3cc(C)c(-c4ccc(OC)cc4)cc23)OC(c2ccc(C)cc2)(c2ccc(N(C)c3ccccc3)cc2)C=C1 (stereo not drawn) [Formula (12-5)]	0.86 -	1.49 -	0.64 -	1.11 -	624	632	0.88 -	1.52 -	0.67 -	1.15 -	0.87 -	1.51 -	0.61 -	1.08 -	625
COc1ccc(C2(c3ccc(OC)cc3)C=Cc3c4c(c5ccc(OC)cc5c3O2)-c2ccccc2C4(C)C)cc1 [Formula (A), reference compound]	0.69 -	0.87 -	0.44 -	0.55 -	569	578	0.72 -	0.91 -	0.48 -	0.61 -	0.71 -	0.90 -	0.46 -	0.58 -	569
COc1ccc(C2(c3ccc(OC)cc3)C=Cc3c4c(c5ccc(OC)cc5c3O2)-c2ccc(N3CCCCC3)cc2C4(C)C)cc1 [Formula (D), reference compound]	0.78 -	1.14 -	0.57 -	0.86 -	617	625	0.80 -	1.18 -	0.62 -	0.94 -	0.80 -	1.17 -	0.58 -	0.88 -	617
COc1ccc(C2(c3ccc(OC)cc3)C=Cc3c4c(c5ccc(OC)cc5c3O2)-c2ccc(OC)cc2C4(C)C)cc1 [Formula (C), reference compound]	0.71 -	1.04 -	0.48 -	0.74 -	593	600	0.74 -	1.07 -	0.54 -	0.81 -	0.73 -	1.06 -	0.51 -	0.75 -	594
